pIC50: −log10 of the molar value.
Legend:
Cholinesterase [1] = molecular target: Cholinesterase (Equus caballus, UniProt P81908); test: Inhibition of equine serum BuChE using butyrylthiocholine iodide as substrate incubated for 10 mins followed by substrate addition by DTNB-reagent based Ellman's colorimetric assay
Cholinesterase [2] = molecular target: Cholinesterase (Homo sapiens, UniProt P06276); test: Inhibition of human BuChE using butyrylthiocholine iodide as substrate incubated for 10 mins followed by substrate addition by DTNB-reagent based Ellman's colorimetric assay
Cholinesterase (Homo sapiens, UniProt P06276), sequence (P06276 whole entry): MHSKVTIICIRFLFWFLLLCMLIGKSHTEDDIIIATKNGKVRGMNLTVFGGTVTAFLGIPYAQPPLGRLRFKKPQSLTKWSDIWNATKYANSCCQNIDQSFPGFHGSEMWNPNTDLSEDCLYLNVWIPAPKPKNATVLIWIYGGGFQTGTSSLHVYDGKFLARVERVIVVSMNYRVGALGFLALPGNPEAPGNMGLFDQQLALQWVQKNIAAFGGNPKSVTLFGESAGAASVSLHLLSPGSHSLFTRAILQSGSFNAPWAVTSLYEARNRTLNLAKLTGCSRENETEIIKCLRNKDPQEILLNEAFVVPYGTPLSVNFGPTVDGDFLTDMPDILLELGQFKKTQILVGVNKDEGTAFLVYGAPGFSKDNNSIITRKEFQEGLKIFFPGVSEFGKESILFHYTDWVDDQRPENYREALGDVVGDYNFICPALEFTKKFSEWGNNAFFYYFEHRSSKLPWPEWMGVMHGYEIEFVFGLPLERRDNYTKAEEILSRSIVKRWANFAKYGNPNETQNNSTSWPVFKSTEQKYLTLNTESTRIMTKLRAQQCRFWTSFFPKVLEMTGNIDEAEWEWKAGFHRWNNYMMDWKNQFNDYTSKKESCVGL

PC-12 [3] = test: Cytotoxicity against rat PC12 cells assessed as survival rate at 100 uM measured after 24 hrs by MTT assay relative to control; details: PC-12, 24 h, read-out: Survival
SH-SY5Y [4] = test: Cytotoxicity against human SH-SY5Y cells assessed as survival rate at 100 uM measured after 24 hrs by MTT assay relative to control; format: functional; details: read-out: Survival
[5] = Cytotoxicity against mouse BV-2 cells assessed as inhibition of cell growth measured after 24 hrs by MTT assay; format: toxicity, cell-based
L02 [6] = test: Cytotoxicity against human L02 cells assessed as survival rate at 100 uM measured after 24 hrs by MTT assay relative to control; format: functional; details: read-out: Survival
PC-12 [7] = test: Cytotoxicity against rat PC12 cells assessed as inhibition of cell growth measured after 24 hrs by MTT assay; format: functional, cell-based; details: PC-12, 24 h
SH-SY5Y [8] = test: Cytotoxicity against human SH-SY5Y cells assessed as survival rate at 2.5 uM measured after 24 hrs by MTT assay relative to control; format: functional; details: read-out: Survival
[9] = Cytotoxicity against mouse BV-2 cells assessed as survival rate at 100 uM measured after 24 hrs by MTT assay relative to control; format: toxicity, cell-based; details: read-out: Survival
SH-SY5Y [10] = test: Cytotoxicity against human SH-SY5Y cells assessed as inhibition of cell growth measured after 24 hrs by MTT assay; format: functional, cell-based
L02 [11] = test: Cytotoxicity against human L02 cells assessed as inhibition of cell growth measured after 24 hrs by MTT assay; format: functional, cell-based; details: L02, 24 h

Cholinesterase (Equus caballus, UniProt P81908), sequence (P81908 whole entry): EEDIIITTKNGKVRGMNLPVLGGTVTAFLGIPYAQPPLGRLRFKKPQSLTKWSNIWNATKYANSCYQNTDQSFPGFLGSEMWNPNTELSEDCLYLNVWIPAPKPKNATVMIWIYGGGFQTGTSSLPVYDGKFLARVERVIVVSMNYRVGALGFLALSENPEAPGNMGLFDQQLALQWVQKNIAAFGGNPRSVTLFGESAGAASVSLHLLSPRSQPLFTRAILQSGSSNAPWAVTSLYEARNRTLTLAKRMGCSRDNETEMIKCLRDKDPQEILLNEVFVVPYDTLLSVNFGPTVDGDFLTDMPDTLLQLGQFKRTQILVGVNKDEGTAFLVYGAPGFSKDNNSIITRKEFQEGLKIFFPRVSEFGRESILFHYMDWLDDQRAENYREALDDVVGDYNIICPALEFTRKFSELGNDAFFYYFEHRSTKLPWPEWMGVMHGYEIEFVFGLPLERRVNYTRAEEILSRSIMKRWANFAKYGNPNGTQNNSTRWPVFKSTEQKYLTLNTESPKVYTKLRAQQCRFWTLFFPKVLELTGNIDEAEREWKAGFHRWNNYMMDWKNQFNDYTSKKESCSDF

In the case of `Nc1nonc1-c1nc2ccccc2n1CC(=O)Nc1cc(F)cc(F)c1`, the pIC50 (Cholinesterase [1]) was 7.24, the pIC50 (Cholinesterase [2]) was 5.43 and the viability at 100 µM (PC-12 [3]) was 84.4%. It also gave a viability at 100 µM (SH-SY5Y [4]) of 56.2%, an IC50 at 24 h [5] of 25400 nM and a viability at 100 µM (L02 [6]) of 60.6%.

Work on `Cc1ccc2cc(NC(=O)Cn3c(-c4nonc4N)nc4ccccc43)ccc2n1` yielded a viability at 100 µM (L02 [6]) of 61.5%.

For `Nc1nonc1-c1nc2ccccc2n1CC(=O)Nc1cc(Cl)cc(Cl)c1`, the pIC50 (Cholinesterase [1]) was 8.37, the pIC50 (Cholinesterase [2]) was 7.52 and the pIC50 (PC-12 [7]) was 4.87. The viability at 2.5 µM (SH-SY5Y [8]) was 45.8%, the viability at 24 h, 100 µM [9] was 52.1% and the viability at 100 µM (L02 [6]) was 94.2%.

`Nc1nonc1-c1nc2ccccc2n1CC(=O)Nc1cc([N+](=O)[O-])cc(C(F)(F)F)c1` showed a pIC50 (Cholinesterase [1]) of 9.46, a pIC50 (Cholinesterase [2]) of 7.15 and a pIC50 (PC-12 [7]) of 4.74. The pIC50 (SH-SY5Y [10]) was 4.81, the viability at 24 h, 100 µM [9] was 57.5% and the viability at 100 µM (L02 [6]) was 57.5%.

With `Nc1nonc1-c1nc2ccccc2n1CC(=O)Nc1ccc([N+](=O)[O-])c(Cl)c1` the pIC50 (Cholinesterase [1]) was 7.96, the pIC50 (Cholinesterase [2]) was 6.13 and the pIC50 (PC-12 [7]) was 4.56. For the same compound, the pIC50 (SH-SY5Y [10]) was 4.60, the viability at 24 h, 100 µM [9] was 52.6% and the viability at 100 µM (L02 [6]) was 52.6%.

Work on `Cc1cc(C)cc(NC(=O)Cn2c(-c3nonc3N)nc3ccccc32)c1` yielded a pIC50 (Cholinesterase [1]) of 7.89, a pIC50 (Cholinesterase [2]) of 6.05 and a viability at 100 µM (PC-12 [3]) of 69.7%. For the same compound, the pIC50 (SH-SY5Y [10]) was 5.12, the viability at 24 h, 100 µM [9] was 85.9% and the viability at 100 µM (L02 [6]) was 85.9%.

With `Nc1nonc1-c1nc2ccccc2n1CC(=O)Nc1cc(F)cc(Cl)c1` the pIC50 (Cholinesterase [1]) was 8.27, the pIC50 (Cholinesterase [2]) was 6.81 and the viability at 100 µM (PC-12 [3]) was 58%. For the same compound, the viability at 2.5 µM (SH-SY5Y [8]) was 28.1%, the viability at 24 h, 100 µM [9] was 111% and the viability at 100 µM (L02 [6]) was 91.7%.

In the case of `COc1cc(NC(=O)Cn2c(-c3nonc3N)nc3ccccc32)cc(OC)c1`, the pIC50 (Cholinesterase [1]) was 6.97, the pIC50 (Cholinesterase [2]) was 6.51 and the viability at 100 µM (PC-12 [3]) was 88.8%. For the same compound, the viability at 2.5 µM (SH-SY5Y [8]) was 24.6%, the IC50 at 24 h [5] was 6300 nM and the viability at 100 µM (L02 [6]) was 72.8%.

Compound `Nc1nonc1-c1nc2ccccc2n1CC(=O)Nc1cc(Br)cc(C(F)(F)F)c1` has a pIC50 (Cholinesterase [1]) of 8.38, a pIC50 (Cholinesterase [2]) of 7.91 and a pIC50 (PC-12 [7]) of 4.94. For the same compound, the viability at 2.5 µM (SH-SY5Y [8]) was 44.7%, the viability at 24 h, 100 µM [9] was 56.3% and the viability at 100 µM (L02 [6]) was 75.8%.

`Nc1nonc1-c1nc2ccccc2n1CC(=O)Nc1cc(Cl)cc(C(F)(F)F)c1` gave a pIC50 (Cholinesterase [1]) of 8.58, a pIC50 (Cholinesterase [2]) of 6.95 and a pIC50 (PC-12 [7]) of 4.34. The pIC50 (SH-SY5Y [10]) was 4.98, the viability at 24 h, 100 µM [9] was 90% and the pIC50 (L02 [11]) was 5.61.

Compound `Cc1cc(Br)cc(NC(=O)Cn2c(-c3nonc3N)nc3ccccc32)c1` has a pIC50 (Cholinesterase [1]) of 8.20, a pIC50 (Cholinesterase [2]) of 6.66 and a viability at 100 µM (PC-12 [3]) of 58.9%. It also gave a viability at 2.5 µM (SH-SY5Y [8]) of 31%, a viability at 24 h, 100 µM [9] of 92.6% and a viability at 100 µM (L02 [6]) of 71.4%.

For `Nc1nonc1-c1nc2ccccc2n1CC(=O)Nc1ccc(F)cc1Br`, the pIC50 (Cholinesterase [1]) was 6.92, the pIC50 (Cholinesterase [2]) was 7.45 and the viability at 100 µM (PC-12 [3]) was 86.6%. For the same compound, the viability at 2.5 µM (SH-SY5Y [8]) was 22.4%, the IC50 at 24 h [5] was 730 nM and the viability at 100 µM (L02 [6]) was 89%.

From ChEMBL document CHEMBL5352386 (Eur J Med Chem, 2022)
